Where two headings read alike, the source gives them in different places. Values belong to the molecule of their own block, whether it stands above or below them.
Columns and labels:
[1] = target: T1, wild-type (WT) KATP channels (Kir6.2/SUR1) (Homo sapiens, UniProt Q09428+Q14654)
[2] = target: T1, wild-type (WT) KATP channels (Kir6.2/SUR1); test: Two-electrode voltage-clamp whole-cell currents in Xenopus oocytes, wild-type channel; assay type: cell-based

T1 sequence (Q14654 whole entry): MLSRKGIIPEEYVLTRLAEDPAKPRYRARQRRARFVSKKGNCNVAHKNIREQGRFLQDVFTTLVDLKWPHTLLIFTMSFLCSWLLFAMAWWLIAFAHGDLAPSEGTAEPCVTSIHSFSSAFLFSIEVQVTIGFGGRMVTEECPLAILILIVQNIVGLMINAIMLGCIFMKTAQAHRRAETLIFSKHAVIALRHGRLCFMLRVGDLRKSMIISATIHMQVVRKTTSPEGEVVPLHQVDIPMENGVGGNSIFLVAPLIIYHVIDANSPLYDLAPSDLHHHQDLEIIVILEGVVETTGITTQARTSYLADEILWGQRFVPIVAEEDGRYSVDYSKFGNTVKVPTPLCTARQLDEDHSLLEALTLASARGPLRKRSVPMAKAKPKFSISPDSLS
T1 sequence (Q09428 whole entry): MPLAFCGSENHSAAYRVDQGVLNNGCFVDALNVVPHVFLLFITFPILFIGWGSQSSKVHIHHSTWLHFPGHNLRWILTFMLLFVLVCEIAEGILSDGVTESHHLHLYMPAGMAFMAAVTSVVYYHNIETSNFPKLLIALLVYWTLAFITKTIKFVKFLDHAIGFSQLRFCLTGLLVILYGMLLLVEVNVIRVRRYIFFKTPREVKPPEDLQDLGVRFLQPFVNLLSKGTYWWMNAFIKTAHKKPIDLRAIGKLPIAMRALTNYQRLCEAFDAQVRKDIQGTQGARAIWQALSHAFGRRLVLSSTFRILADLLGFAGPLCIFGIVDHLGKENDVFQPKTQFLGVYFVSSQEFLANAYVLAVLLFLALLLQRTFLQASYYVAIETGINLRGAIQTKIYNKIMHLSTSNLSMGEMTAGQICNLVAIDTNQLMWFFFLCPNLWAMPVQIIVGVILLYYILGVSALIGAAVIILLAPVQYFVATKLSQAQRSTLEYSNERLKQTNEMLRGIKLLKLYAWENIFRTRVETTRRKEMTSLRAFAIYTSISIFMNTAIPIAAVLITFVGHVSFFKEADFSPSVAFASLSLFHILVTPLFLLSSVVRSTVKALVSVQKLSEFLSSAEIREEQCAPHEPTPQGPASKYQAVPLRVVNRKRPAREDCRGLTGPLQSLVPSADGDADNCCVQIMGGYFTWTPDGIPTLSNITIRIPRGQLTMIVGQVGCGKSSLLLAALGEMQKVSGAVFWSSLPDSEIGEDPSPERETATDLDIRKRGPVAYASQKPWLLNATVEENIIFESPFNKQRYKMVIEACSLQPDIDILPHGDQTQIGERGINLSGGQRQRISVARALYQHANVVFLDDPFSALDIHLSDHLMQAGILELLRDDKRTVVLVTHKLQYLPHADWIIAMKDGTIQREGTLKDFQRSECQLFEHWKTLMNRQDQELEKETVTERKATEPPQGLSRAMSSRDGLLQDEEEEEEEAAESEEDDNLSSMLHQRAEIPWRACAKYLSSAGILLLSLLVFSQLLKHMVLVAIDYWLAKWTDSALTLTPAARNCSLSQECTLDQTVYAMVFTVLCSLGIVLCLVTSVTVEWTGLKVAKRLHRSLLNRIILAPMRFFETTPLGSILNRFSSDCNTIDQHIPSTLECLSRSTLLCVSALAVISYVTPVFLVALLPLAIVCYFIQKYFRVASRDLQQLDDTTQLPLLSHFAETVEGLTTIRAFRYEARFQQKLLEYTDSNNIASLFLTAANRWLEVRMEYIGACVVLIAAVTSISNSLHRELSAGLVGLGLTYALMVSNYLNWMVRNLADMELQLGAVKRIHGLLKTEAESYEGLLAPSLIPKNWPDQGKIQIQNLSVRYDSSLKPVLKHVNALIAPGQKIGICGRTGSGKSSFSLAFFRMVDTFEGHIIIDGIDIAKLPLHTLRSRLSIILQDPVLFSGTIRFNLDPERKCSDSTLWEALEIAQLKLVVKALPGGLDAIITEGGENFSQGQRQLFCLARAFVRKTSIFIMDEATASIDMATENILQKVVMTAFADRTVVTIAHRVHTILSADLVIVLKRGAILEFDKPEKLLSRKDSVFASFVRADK

Hill coefficient h, fits to individual dose-response relationships (mean±SEM) ([1]; absence of Mg2+): 1.24±0.05 | Hill coefficient h, fit to the mean data ([1]; presence of Mg2+): 1.1 | Hill coefficient h, fits to individual dose-response relationships (mean±SEM) ([1]; presence of Mg2+): 1.12±0.04
Compound: Nc1ncnc2c1ncn2[C@@H]1O[C@H](COP(=O)(O)OP(=O)(O)OP(=O)(O)O)[C@@H](O)[C@H]1O [ATP, adenosine triphosphate]

Compound: [N-]=[N+]=[N-].[Na+] [Na-azide]
activation of whole-cell currents by the metabolic inhibitor ([2]; WT, 3 mM Na-azide): activated

tolbutamide block, percentage block of the azide-induced current ([2]; WT channels, 0.5 mM tolbutamide after 3 mM Na-azide): > 95%
Compound: CCCCNC(=O)NS(=O)(=O)c1ccc(C)cc1 [tolbutamide]

Reference: patent US20260199438A1, “METHOD AND TREATMENT FOR DIABETES IN DOGS” (THE ROYAL VETERINARY COLLEGE, priority 2022, published 2026)
